PubChem BioAssay AID2060499 (Molecular Pharmacology Branch, DTP, NCI, 2025)
Where “and” joins values, the source holds several entries; their conditions need not be identical. Identical values can stand only once.

System: 777334-354-R2-J4-PDC tumor spheroids with HUVEC/MSC, viability
Test: Anticancer human tumor 777334-354-R2-J4-PDC patient-derived pancreatic adenocarcinoma cell line growth inhibition [GQUAD]
Conditions: for viability, T/C: stronger effect = lower value; for IC50: curve of compound
Excerpt: DNA G-quadruplex Stabilizer Agents in Combinations in Complex Spheroids
A high-throughput screen of multi-cell type tumor spheroids was designed to identify active combinations of DNA G-quadruplex stabilizer agents and targeted small molecules. Complex spheroids include a stromal component modeled by human endothelial cells (HUVEC) and fibroblasts modeled by human mesenchymal stem cells (MSCs). The concentration ranges selected for each drug and investigational agent were based upon clinically achievable concentrations if the clinical Cmax of the agent was known.
Compounds. The drugs and investigational agents: pidnarulex (CX-5461; NSC782164), APTO-253 (NSC789042), BRACO-19 (NSC847499), peposertib (NSC802822), ceralasertib (NSC780249), elimusertib (NSC800525), camonsertib (NSC841442), AZD-1390 (NSC803789), olaparib (NSC753686), talazoparib (NSC767125), ART-558 (NSC835418), sotorasib (NSC818433), MRTX-1133 (NSC836407), SN-38 (NSC673596), topotecan (NSC609699), etoposide (NSC141540), doxorubicin (NSC123127), gemcitabine (NSC613327), 5-fluorouracil (NSC19893), paclitaxel (NSC125973), vemurafenib (NSC761431), panobinostat (NSC761190), R-306465 (JNJ-16241199; NSC773264), adavosertib (NSC754352), TP-3654 (NSC805149), carboplatin (NSC241240), KSQ-4279 (NSC840948), and staurosporine (NSC755774) were obtained from the National Cancer Institute (NCI) Developmental Therapeutics Program Chemical Repository (34). The FDA-approved anticancer drug set is available from the NCI Developmental Therapeutics Program. […] The stock solutions were prepared in dimethyl sulfoxide (DMSO, Sigma-Aldrich, St. Louis, MO, cat. D2650) at 800-fold the tested concentration and stored at -70 degrees C prior to their use. All drugs and investigational agents were tested over a range starting from a high concentration at or near the clinical Cmax and decreasing in half-log increments. If the clinical Cmax for an agent had not been determined, the highest concentration tested was 10 microM.
2.3 Cell Culture. All cells were maintained in an incubator at 37 degrees C and 5% CO2 with 95% humidity. The PDC lines were cultured according to standard operating procedures established by the NCI PDMR. All PDCs were thawed and cultured in Matrigel-coated flasks prepared with a working solution of 1X Ham's F-12 nutrient mix, without supplementation (Invitrogen, cat. 11765054), 100 U/mL penicillin-streptomycin (Invitrogen, cat. 15140122), and 2.5% Matrigel (Corning Inc., cat. 354248) for the first three passages. The 857933-349-R-J2-PDC line was cultured in 6C/Colon 1B media, which includes advanced DMEM/F-12 (Thermo Fisher Scientific, cat. 12634028), 10 mM HEPES (Thermo Fisher Scientific, cat. 15630080), 1X GlutaMAX supplement (Thermo Fisher Scientific, cat. 35050061), 0.1 mg/mL primocin (InvivoGen, cat. ant-pm-2), 10% defined fetal bovine serum, heat inactivated (HyClone Laboratories Inc., cat. SH30070.03HI), 50% L-WRN conditioned media (ATCC, cat. CRL-3276), 1.25 mM N-Acetyl-L-cysteine (Sigma-Aldrich, cat. A9165), 10 mM nicotinamide (Sigma-Aldrich, cat. N0636), 1X B-27 supplement (Thermo Fisher Scientific, cat. 17504044), 1X N-2 supplement (Thermo Fisher Scientific, cat. 17502048), 10 microM Y-27632 dihydrochloride (Tocris Bioscience, cat. 1254), and 50 ng/mL human EGF recombinant protein (Thermo Fisher Scientific, cat. PHG0311). The 485176-168-R4-J1-PDC line was cultured in Panc media, which includes all 6C/Colon 1B media components plus 100 ng/mL human FGF-10 (Thermo Fisher Scientific, cat. 100-26), 500 nM SB-431542 (Selleckchem, cat. S1067), and gastrin (Tocris, cat. 3006).
[…]
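Also: spheroids exposed to compounds for 7 days before readout.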

Row | Structure (SMILES) | viability, T/C (compound 0.0316 µM) | viability, T/C (compound 0.1 µM) | viability, T/C (compound 0.316 µM) | viability, T/C (compound 1 µM) | viability, T/C (compound 3.16 µM) | viability, T/C (compound 10 µM) | IC50 | viability, T/C (compound 0.000999 µM) | viability, T/C (compound 0.00316 µM) | viability, T/C (compound 0.00999 µM) | viability, T/C (compound 0.0999 µM)
1 | CC(C)(O)C1CCC(Nc2ccc3ncc(-c4cccc(C(F)(F)F)c4)n3n2)CC1 (stereo not drawn) | 84.4% and 103% and 93.7% | 80.4% and 88.1% and 93.2% | 82.7% and 83.2% and 94.2% | 62.6% and 55.1% and 44.4% | 32.1% and 31.5% and 31.2% | 34.5% and 39.3% and 36.5% | 1640 nM and 1290 nM and 876 nM | – | – | – | –
2 | CCCS(=O)(=O)Nc1ccc(F)c(C(=O)c2c[nH]c3ncc(-c4ccc(Cl)cc4)cc23)c1F | 107% and 111% and 99.5% | 109% and 105% and 92.8% | 114% and 127% and 108% | 110% and 120% and 102% | 98.7% and 115% and 111% | 37.2% and 34.2% and 33.4% | 7890 nM and 7980 nM and 7600 nM | – | – | – | –
3 | CC(=O)O[C@H]1C(=O)[C@@]2(C)[C@H]([C@H](OC(=O)c3ccccc3)[C@]3(O)C[C@H](OC(=O)[C@H](O)[C@@H](NC(=O)c4ccccc4)c4ccccc4)C(C)=C1C3(C)C)[C@]1(OC(C)=O)CO[C@@H]1C[C@@H]2O | 78.3% and 74% and 80.3% | 61.3% and 56% and 57.1% | 47.8% and 50% and 43.4% | 46% and 46.2% and 44.1% | 45.2% and 46.1% and 39.9% | 47.9% and 45% and 51.3% | 260 nM and 276 nM and 193 nM | – | – | – | –
4 | Cc1cccc(N(C)C(=O)C2C(O)CCN2c2nc(C)cc(C(F)(F)F)c2C#N)c1 (stereo not drawn) | 102% (2×) and 107% | 108% and 104% and 87.8% | 99.9% and 101% and 98.9% | 87.3% and 100% and 95% | 92.4% and 93.6% and 109% | 96.5% and 85.7% and 94.7% | > 10000 nM | – | – | – | –
5 | COc1ncnc(C2CC2)c1-c1ncc2cnn(Cc3ccc(-c4nc(C(F)(F)F)cn4C(C)C)cc3)c2n1 | 102% and 98.3% (2×) | 96.7% and 90.9% and 106% | 103% and 98.9% and 98.6% | 91.9% and 99.5% and 98.8% | 102% and 100% and 99.3% | 109% and 111% and 98.8% | > 10000 nM | – | – | – | –
6 | Cc1[nH]c2ccccc2c1CCNCc1ccc(/C=C/C(=O)NO)cc1 | 93.5% and 98.6% and 91.6% | – | 32.1% and 29.1% and 35.9% | – | – | – | 190 nM and 181 nM and 208 nM | 99% and 100% (2×) | 91.5% and 99.1% and 97.5% | 106% and 114% and 102% | 72.8% and 72.4% and 75%
7 | CC1COCCN1c1cc(-c2ccnn2C)c2ccnc(-c3ccn[nH]3)c2n1 (stereo not drawn) | 94.2% and 88.2% and 75% | 73.7% and 75.3% and 83.1% | 65.4% and 62.4% and 50.8% | 47.7% and 49.3% and 49.1% | 37.1% and 41.5% and 48.4% | 26.8% and 33.3% and 28.8% | 901 nM and 1020 nM and 1110 nM | – | – | – | –
8 | CC1COCCN1c1cc(C2(O)CC3CCC(C2)O3)c2cnn(-c3ccn[nH]3)c2n1 (stereo not drawn) | 93.3% and 104% and 95% | 76.1% and 79.5% and 78.4% | 52.4% and 54.4% and 51.5% | 39.1% and 38.5% and 37.8% | 30.1% and 36.1% and 34.6% | 20.1% and 19.8% and 21.7% | 447 nM and 516 nM and 435 nM | – | – | – | –
9 | O=c1[nH]cc(F)c(=O)[nH]1 | 103% (2×) and 96.5% | 103% and 97.9% and 98.6% | 104% and 107% and 115% | 75.3% and 73.9% and 78% | 69.9% and 72.7% and 71.7% | 63.2% and 65.2% and 59.8% | > 10000 nM | – | – | – | –
